Results published in patent publication US11191766B2, “Methods of treating pediatric cancers” (Loxo Oncology, Inc., priority 2016, dated 2021).
Structures can show the parent of a compound that is named as a salt.

Key:
[1] = Accelerated stability study in an LDPE bag at 40° C./75% RH for five weeks; assay type: physicochemical
[2] = Hygroscopicity: dynamic vapor sorption (DVS) / exposure to humidity; assay type: physicochemical; conditions: for hygroscopicity: non-hygroscopic = less than a 2% weight gain at 25° C. and 80% RH after 24 to 48 hours
Description: For the DVS measurement a sample of crystalline form (I-HS) was cycled through changing humidity conditions to determine its hygroscopicity. The sample was analyzed using a Surface Measurement System DVS-1 Dynamic Vapor Sorption System. […] Data was collected in 1 minute intervals. Nitrogen was used as the carrier gas. […] After completion of the sorption cycle, the sample was dried using the same procedure, but all the way down to 0% RH and finally taken back to the starting point of 20% RH. The weight change during the sorption/desorption cycles were plotted, allowing for the hygroscopic nature of the sample to be determined.
The crystalline form (I-HS), as noted previously, is non-hygroscopic. […] Given this tendency, use of the AM(HS) compound would require significant handling precautions during storage and manufacture to prevent this change in form from occurring whereas the crystalline form (I-HS) requires no such precautions during manufacture of the API.

[3] = test system: Infantile Fibrosarcoma with NTRK3-ETV6 Fusion; test: Phase 1 pediatric study of oral liquid formulation, case of infantile fibrosarcoma (MR imaging response); assay type: in vivo, human
[4] = first two cycles; fever and influenza A considered not related
[5] = Flow properties (Carr's and Hausner Index); assay type: physicochemical
Text: The differences in flow properties can make the development of a solid oral dosage form more difficult for the amorphous API vs. the crystalline API.

O=C(Nc1cnn2ccc(N3CCC[C@@H]3c3cc(F)ccc3F)nc12)N1CC[C@H](O)C1.O=S(=O)(O)O [AM(HS), (S)—N-(5-((R)-2-(2,5-difluorophenyl)pyrrolidin-1-yl)-pyrazolo[1,5-a]pyrimidin-3-yl)-3-hydroxypyrrolidine-1-carboxamide hydrogen sulfate]
chemical impurity levels over the course of the study [1]: neither the AM(HS) or crystalline form (I-HS) exhibited a significant changes in chemical impurity levels
hygroscopicity [2]: deliquesce upon exposure to humidity

O=C(Nc1cnn2ccc(N3CCC[C@@H]3c3cc(F)ccc3F)nc12)N1CC[C@H](O)C1 [Compound I-HS, (S)—N-(5-((R)-2-(2,5-difluorophenyl)pyrrolidin-1-yl)-pyrazolo[1,5-a]pyrimidin-3-yl)-3-hydroxypyrrolidine-1-carboxamide hydrogen sulfate]
response on repeat scans ([3]; end of Cycle 2, size reduction confirmed, continued decrease in enhancement): partial response
interval reduction in the size and enhancement of the mass from baseline (MR of the brain and neck) ([3]; end of cycle 1 (day 28), BID, patient): more than 90%
clinical observation noted by the parents ([3]; throughout cycle 1): improved engagement and playfulness
adverse events related to compound [4]: no adverse events related to Compound I-HS

O=C(Nc1cnn2ccc(N3CCC[C@@H]3c3cc(F)ccc3F)nc12)N1CC[C@H](O)C1 [crystalline form (I-HS), (S)—N-(5-((R)-2-(2,5-difluorophenyl)pyrrolidin-1-yl)-pyrazolo[1,5-a]pyrimidin-3-yl)-3-hydroxypyrrolidine-1-carboxamide hydrogen sulfate]
chemical impurity levels over the course of the study [1]: neither the AM(HS) or crystalline form (I-HS) exhibited a significant changes in chemical impurity levels
flow properties compared with amorphous API [5]: better flow properties
change in crystalline form during DVS (XRPD post vs pre DVS) [2]: no change
hysteresis between sorption and desorption cycles ([2]; DVS): very small hysteresis
increase in mass during the sorption cycle ([2]; between 0% and 90% RH): about 1.7%
hygroscopicity [2]: non-hygroscopic
